Experimental data from article PMC6193938, “Characterization of a novel AICARFT inhibitor which potently elevates ZMP and has anti-tumor activity in murine models” (Scientific Reports, 2018).

What was measured:
ERK1 = target: T1, ERK1 (Homo sapiens, UniProt P27361); assay: CEREP protein kinase assay; format: biochemical
T1 construct: purchased CEREP Panlabs (Eurofins)

ROCK2 = target: T2, ROCK2 (Homo sapiens, UniProt O75116); assay: CEREP protein kinase assay; format: biochemical
T2 construct: purchased CEREP Panlabs (Eurofins)

FLT3 = target: T3, FLT3 (Homo sapiens, UniProt P36888); assay: CEREP protein kinase assay; format: biochemical
T3 construct: purchased CEREP Panlabs (Eurofins)
T3 sequence (P36888 27-993): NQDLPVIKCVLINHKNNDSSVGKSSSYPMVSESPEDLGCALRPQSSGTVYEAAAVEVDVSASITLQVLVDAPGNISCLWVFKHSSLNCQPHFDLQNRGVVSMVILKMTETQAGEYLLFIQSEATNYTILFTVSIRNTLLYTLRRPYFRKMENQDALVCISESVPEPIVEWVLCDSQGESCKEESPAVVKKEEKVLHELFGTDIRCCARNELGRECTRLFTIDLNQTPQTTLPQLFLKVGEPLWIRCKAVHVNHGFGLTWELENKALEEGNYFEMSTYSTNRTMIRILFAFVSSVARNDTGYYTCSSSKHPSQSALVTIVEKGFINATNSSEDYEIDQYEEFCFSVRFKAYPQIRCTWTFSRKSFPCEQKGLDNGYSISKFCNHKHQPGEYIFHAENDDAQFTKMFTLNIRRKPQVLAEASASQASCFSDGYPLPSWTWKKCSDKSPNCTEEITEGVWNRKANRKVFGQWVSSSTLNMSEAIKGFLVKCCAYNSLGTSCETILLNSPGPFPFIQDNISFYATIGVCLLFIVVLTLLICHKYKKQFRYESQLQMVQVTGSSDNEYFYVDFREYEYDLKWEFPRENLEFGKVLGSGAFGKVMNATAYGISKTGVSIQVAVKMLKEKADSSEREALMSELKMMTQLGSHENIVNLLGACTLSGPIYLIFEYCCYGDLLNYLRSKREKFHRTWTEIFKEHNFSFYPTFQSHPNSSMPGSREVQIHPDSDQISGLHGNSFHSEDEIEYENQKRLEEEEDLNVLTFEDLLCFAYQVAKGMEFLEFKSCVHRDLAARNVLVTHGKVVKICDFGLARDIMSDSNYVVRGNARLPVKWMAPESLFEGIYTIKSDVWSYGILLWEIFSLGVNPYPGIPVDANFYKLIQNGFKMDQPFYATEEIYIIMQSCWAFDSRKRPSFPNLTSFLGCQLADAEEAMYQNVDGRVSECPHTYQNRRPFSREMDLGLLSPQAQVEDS

FGFR4 = target: T4, FGFR4 (Homo sapiens, UniProt P22455); assay: CEREP protein kinase assay; format: biochemical
T4 construct: purchased CEREP Panlabs (Eurofins)

NEK2 = target: T5, NEK2 (Homo sapiens, UniProt P51955); assay: CEREP protein kinase assay; format: biochemical
T5 construct: purchased CEREP Panlabs (Eurofins)
T5 sequence (P51955 1-445): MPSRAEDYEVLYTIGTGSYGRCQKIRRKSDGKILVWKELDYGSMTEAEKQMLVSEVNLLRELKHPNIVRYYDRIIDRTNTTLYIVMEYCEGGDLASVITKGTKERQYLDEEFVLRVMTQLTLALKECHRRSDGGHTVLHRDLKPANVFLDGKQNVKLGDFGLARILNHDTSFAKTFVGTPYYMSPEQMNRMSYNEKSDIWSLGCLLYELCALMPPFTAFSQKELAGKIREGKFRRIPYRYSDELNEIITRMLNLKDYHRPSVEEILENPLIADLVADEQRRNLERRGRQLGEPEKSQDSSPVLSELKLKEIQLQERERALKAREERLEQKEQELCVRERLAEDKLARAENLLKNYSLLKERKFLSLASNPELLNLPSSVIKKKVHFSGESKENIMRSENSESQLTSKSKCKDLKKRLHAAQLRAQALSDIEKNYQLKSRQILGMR

KIT = target: T6, KIT (Homo sapiens, UniProt P10721); assay: CEREP protein kinase assay; format: biochemical
T6 construct: purchased CEREP Panlabs (Eurofins)

AURA = target: T7, AURA (Homo sapiens, UniProt O14965); assay: CEREP protein kinase assay; format: biochemical
T7 construct: purchased CEREP Panlabs (Eurofins)
T7 sequence (O14965 1-403): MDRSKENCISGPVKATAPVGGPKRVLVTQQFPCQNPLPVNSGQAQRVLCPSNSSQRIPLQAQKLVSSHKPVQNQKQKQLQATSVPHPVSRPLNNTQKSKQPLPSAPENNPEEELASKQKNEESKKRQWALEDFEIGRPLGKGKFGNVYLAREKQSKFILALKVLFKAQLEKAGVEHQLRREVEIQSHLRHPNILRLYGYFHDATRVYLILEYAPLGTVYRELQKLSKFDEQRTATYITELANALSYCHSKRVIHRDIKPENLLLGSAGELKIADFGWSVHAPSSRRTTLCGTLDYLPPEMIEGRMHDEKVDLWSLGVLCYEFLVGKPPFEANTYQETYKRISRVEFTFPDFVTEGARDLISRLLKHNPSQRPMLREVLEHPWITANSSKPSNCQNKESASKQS

TRKB = target: T8, TRKB (Homo sapiens, UniProt Q16620); assay: CEREP protein kinase assay; format: biochemical
T8 construct: purchased CEREP Panlabs (Eurofins)

[1] = mouse, in vivo

T6 sequence (P10721 26-976): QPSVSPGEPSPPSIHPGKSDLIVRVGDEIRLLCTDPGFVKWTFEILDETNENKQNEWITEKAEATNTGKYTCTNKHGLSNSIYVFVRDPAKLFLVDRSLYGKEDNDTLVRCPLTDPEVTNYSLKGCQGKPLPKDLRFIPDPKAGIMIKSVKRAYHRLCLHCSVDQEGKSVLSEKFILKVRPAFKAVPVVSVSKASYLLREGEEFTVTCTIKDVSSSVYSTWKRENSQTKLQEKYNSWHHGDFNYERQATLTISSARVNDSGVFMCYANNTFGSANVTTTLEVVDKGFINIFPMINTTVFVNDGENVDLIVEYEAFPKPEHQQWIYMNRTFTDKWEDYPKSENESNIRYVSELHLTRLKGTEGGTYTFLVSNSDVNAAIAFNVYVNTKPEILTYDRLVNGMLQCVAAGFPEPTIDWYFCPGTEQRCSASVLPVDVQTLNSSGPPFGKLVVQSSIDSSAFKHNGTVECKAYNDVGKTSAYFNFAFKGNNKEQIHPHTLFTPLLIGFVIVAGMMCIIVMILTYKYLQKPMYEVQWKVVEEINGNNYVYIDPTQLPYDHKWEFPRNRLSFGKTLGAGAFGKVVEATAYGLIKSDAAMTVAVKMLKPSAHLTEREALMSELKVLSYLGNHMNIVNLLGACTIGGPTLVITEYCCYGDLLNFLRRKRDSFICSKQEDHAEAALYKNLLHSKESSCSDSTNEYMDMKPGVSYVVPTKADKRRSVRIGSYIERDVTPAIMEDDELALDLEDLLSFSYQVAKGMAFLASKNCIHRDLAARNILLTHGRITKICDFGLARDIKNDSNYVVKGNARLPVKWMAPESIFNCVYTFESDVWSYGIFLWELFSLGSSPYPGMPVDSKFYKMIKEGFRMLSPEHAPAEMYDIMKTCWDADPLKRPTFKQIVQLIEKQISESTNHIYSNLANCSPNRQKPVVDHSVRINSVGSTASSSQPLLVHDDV
T2 sequence (O75116 whole entry): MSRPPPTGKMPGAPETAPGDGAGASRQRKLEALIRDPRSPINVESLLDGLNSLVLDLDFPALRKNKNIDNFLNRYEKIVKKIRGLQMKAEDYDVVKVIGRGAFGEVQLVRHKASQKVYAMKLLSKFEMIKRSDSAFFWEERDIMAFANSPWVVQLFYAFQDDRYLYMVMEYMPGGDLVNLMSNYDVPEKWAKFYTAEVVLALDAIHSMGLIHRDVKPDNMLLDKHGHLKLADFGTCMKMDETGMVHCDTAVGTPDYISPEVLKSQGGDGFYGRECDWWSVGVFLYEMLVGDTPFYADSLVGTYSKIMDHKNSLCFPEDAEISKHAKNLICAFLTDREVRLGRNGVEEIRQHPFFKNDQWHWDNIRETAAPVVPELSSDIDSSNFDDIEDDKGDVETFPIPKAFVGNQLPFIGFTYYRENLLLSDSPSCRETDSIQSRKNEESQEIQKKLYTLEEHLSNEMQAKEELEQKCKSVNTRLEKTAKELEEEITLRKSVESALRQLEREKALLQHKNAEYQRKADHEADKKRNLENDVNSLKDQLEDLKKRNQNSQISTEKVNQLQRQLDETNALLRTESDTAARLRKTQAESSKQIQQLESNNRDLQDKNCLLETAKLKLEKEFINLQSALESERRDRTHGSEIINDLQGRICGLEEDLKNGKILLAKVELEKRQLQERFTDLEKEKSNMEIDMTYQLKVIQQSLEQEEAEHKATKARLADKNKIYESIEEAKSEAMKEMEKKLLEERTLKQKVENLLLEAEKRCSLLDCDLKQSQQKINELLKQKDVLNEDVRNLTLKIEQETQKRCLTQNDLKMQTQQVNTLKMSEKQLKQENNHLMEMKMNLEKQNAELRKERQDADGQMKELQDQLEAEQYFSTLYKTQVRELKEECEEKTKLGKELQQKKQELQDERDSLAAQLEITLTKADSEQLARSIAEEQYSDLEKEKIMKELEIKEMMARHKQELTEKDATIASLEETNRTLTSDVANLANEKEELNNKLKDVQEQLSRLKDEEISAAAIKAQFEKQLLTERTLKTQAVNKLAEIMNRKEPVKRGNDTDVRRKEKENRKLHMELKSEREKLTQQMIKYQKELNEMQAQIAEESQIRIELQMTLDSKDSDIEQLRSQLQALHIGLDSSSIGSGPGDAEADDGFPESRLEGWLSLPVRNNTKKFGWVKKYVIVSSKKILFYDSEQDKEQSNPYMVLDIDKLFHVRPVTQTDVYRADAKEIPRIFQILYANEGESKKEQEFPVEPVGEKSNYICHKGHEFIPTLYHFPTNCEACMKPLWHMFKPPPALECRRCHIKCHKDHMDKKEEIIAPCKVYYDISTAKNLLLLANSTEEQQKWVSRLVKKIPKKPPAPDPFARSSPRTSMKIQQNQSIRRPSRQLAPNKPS
T4 sequence (P22455 22-802): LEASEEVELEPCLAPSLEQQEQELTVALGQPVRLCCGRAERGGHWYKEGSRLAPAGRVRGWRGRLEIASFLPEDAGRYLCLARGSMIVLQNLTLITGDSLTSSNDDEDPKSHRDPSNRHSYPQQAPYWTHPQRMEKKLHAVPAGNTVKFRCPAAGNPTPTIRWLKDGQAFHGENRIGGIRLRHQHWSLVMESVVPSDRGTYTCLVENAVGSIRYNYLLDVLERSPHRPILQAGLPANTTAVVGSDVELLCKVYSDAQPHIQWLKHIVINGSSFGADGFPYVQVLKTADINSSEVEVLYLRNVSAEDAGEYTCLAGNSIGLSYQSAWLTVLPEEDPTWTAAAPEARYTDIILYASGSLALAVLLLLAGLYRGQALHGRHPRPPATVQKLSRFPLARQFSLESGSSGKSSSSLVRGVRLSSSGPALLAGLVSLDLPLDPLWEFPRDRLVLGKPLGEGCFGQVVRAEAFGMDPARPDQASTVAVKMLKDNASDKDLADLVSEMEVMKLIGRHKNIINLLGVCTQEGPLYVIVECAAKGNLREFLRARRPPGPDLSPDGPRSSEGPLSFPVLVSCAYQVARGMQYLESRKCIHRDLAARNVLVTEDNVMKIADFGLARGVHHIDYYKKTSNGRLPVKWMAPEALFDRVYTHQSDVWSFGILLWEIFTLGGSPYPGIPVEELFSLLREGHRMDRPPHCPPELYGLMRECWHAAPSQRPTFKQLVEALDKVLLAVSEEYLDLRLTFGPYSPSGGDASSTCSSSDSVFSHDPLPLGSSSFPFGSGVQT
T8 sequence (Q16620 32-822): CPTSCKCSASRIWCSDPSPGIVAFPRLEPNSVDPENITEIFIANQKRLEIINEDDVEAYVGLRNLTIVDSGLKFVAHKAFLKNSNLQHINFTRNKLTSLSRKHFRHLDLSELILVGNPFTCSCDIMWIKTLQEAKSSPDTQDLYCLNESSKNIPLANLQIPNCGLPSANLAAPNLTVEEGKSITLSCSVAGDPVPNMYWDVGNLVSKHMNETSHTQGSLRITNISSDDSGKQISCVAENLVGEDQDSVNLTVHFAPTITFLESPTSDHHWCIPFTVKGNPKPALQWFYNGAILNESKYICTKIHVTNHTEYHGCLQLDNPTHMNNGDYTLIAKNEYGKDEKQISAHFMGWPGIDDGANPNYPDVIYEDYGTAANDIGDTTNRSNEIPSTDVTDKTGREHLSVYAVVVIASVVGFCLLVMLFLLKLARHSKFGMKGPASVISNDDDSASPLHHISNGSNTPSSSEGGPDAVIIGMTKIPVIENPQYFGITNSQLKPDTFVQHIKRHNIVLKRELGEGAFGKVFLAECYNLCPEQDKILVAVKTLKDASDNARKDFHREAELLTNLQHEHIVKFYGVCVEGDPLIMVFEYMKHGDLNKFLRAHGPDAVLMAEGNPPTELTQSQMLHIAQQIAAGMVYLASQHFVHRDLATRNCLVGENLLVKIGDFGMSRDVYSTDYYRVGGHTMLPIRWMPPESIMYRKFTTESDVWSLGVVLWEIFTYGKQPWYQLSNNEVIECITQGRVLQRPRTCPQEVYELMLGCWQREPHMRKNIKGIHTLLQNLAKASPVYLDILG
T1 sequence (P27361 whole entry): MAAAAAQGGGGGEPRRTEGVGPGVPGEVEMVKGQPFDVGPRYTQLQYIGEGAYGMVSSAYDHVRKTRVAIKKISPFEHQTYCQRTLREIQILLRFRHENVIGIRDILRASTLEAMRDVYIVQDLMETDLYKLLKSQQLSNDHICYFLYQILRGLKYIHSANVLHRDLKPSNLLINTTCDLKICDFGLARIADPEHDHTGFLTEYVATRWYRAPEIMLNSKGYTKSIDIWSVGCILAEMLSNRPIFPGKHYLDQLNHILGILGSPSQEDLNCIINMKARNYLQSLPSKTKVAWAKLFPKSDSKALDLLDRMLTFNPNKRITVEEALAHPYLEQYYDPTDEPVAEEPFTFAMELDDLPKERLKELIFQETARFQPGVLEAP

O=c1[nH]ccc2cc(F)c(NS(=O)(=O)c3ccc(N4CC[C@@H](O)C4)s3)cc12 [LSN3213128, N-(6-Fluoro-1-oxo-1,2-dihydroisoquinolin-7-yl)-5-[(3R)-3-hydroxypyrrolidin-1-yl]thiophene-2-sulfonamide]
inhibition at 0.2 µM (ERK1; @ 0.2 uM): -2.6% | inhibition at 2 µM (ERK1; @ 2 uM): 9.15% | inhibition at 20 µM (ERK1; @ 20 uM): 53.7% | inhibition at 0.2 µM (ROCK2; @ 0.2 uM): -3.09% | inhibition at 2 µM (ROCK2; @ 2 uM): 4.72% | inhibition at 20 µM (ROCK2; @ 20 uM): 5.81% | inhibition at 0.2 µM (FLT3; @ 0.2 uM): -12.1% | inhibition at 2 µM (FLT3; @ 2 uM): 10.7% | inhibition at 20 µM (FLT3; @ 20 uM): 53.2% | inhibition at 0.2 µM (FGFR4; @ 0.2 uM): 0.737% | inhibition at 2 µM (FGFR4; @ 2 uM): 13.2% | inhibition at 20 µM (FGFR4; @ 20 uM): 8.82% | inhibition at 0.2 µM (NEK2; @ 0.2 uM): -9.52% | inhibition at 2 µM (NEK2; @ 2 uM): 5.24% | inhibition at 20 µM (NEK2; @ 20 uM): -6.75% | inhibition at 0.2 µM (KIT; @ 0.2 uM): -6.65% | inhibition at 2 µM (KIT; @ 2 uM): 6.65% | inhibition at 20 µM (KIT; @ 20 uM): 42% | inhibition at 0.2 µM (AURA; @ 0.2 uM): -4.11% | inhibition at 2 µM (AURA; @ 2 uM): 1.86% | inhibition at 20 µM (AURA; @ 20 uM): 4.28% | inhibition at 0.2 µM (TRKB; @ 0.2 uM): 2.14% | inhibition at 2 µM (TRKB; @ 2 uM): 3.76% | inhibition at 20 µM (TRKB; @ 20 uM): 20.3% | tolerability of efficacy studies [1]: toxicity upon repeated dosing
